# Source: patent US4505905A, “Cyclobutanone antibacterials” (E. I. Du Pont de Nemours and Company, priority 1982, dated 1985)
# Like-named read-outs stand apart in the source and are kept apart here.
# Key:
# [1] = test system: Bacillus cereus var. mycoides; experiment: microbe, parasite or virus in culture; assay type: cell-based, Bacillus cereus var. mycoides: ATCC 11778; details: for MIC: Bacillus cereus, read-out: MIC: μg/mL Compound Alone; for active against B. cereus var. mycoides: Table 6
# [2] = test system: Bacillus cereus var. mycoides; assay type: cell-based, Bacillus cereus var. mycoides: ATCC 11778; details: Table 6; for Effective Combination Concentrations: Units/mL Benzyl Penicillin: concentration of benzyl penicillin combined with the compound; for Effective Combination Concentrations: μg/mL Compound: concentration of compound in combination with benzyl penicillin
# [3] = test system: penicillin-resistant Staphylococcus aureus strain; experiment: Intrinsic antibacterial activity, microdilution method (MIC, compound alone); details: for MIC: Staphylococcus aureus
# [4] = test system: penicillin-resistant Staphylococcus aureus strain; experiment: Antibacterial activity in combination with benzyl penicillin, modified microdilution technique; details: Table 4; for Effective Combination Concentrations: Units/mL Benzyl Penicillin: concentration of benzyl penicillin combined with the compound; for Effective Combination Concentrations: μg/mL Compound: concentration of compound in combination with benzyl penicillin
# [5] = target: Pencillinase Type I (a β-lactamase from Bacillus cereus) (Bacillus cereus, UniProt P00809); experiment: Inhibition of the hydrolysis of penicillin G by Pencillinase Type I; assay type: biochemical; details: penicillin G 0.6 mg/mL; enzyme 2.8 μg/mL; inhibitor 75 μg/mL; read-out: percent inhibition of hydrolysis of penicillin G
# [6] = test system: Penicillin Gresistant strain of Staphylococcus Aureus; experiment: Survival of mice infected with a Penicillin G resistant strain of Staphylococcus Aureus; assay type: in vivo
# Procedure: ^3 In mice infected with a Penicillin Gresistant strain of
# Staphylococcus Aureus, the orally administered combination of 32, at 125
# mg/kg of body weight, and Penicillin G, at 80 mg/kg of body weight, […]
# [7] = read-out: MIC: μg/mL Compound Alone
# Chain of Pencillinase Type I (a β-lactamase from Bacillus cereus) (P00809 28-306): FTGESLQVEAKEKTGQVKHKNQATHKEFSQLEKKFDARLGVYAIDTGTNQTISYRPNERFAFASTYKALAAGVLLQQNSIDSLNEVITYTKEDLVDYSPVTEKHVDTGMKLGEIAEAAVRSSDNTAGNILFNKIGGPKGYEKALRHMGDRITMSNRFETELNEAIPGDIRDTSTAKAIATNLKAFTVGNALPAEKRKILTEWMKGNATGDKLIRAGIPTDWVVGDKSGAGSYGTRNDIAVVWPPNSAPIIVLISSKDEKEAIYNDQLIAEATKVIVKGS
compound,measurement,setting,value
"C[C@H](O)[C@H]1C(=O)[C@@H]2C(C(=O)OC(c3ccccc3)c3ccccc3)=C([S+]([O-])c3ccccc3)C[C@@H]21 (relative stereo) [Compound 35, 3-Phenylsulfinyl-6-(1-hydroxyethyl)-7-oxobicyclo[3.2.0]hept-2-en-2-carboxylic Acid, Diphenylmethyl Ester]",MIC,[1],25 µg/mL
same,active against B. cereus var. mycoides,[1],active
same,Effective Combination Concentrations: Units/mL Benzyl Penicillin,[2],25 Units/mL
same,Effective Combination Concentrations: μg/mL Compound,[2],3.2 µg/mL
same,MIC,[3]; [7],50 µg/mL
same,Effective Combination Concentrations: Units/mL Benzyl Penicillin,[4],10 Units/mL
same,Effective Combination Concentrations: μg/mL Compound,[4],6.3 µg/mL
"CC(=O)NCCSC1=C(C(=O)OC(c2ccccc2)c2ccccc2)C2C(=O)[C@H]([C@H](C)O)[C@H]2C1 (relative stereo) [Compound 76, 3-(2-Acetamidoethylthio)-(1-hydroxyethyl)-7-oxobicyclo[3.2.0]hept-2-en-2-carboxylic Acid, Diphenylmethyl Ester]",MIC,[3]; [7],> 100 µg/mL
same,Effective Combination Concentrations: Units/mL Benzyl Penicillin,[4],10 Units/mL
same,Effective Combination Concentrations: μg/mL Compound,[4],50 µg/mL
"CC(=O)NCC[S+]([O-])C1=C(C(=O)OC(c2ccccc2)c2ccccc2)[C@H]2C(=O)[C@H]([C@H](C)O)[C@H]2C1 (relative stereo) [Compound 78, 3-(2-Acetamidoethylsulfinyl)-6-(1-hydroxyethyl)-7-oxobicyclo[3.2.0]hept-2-en-2-carboxylic Acid, Diphenylmethyl Ester]",MIC,[3]; [7],50 µg/mL
same,Effective Combination Concentrations: Units/mL Benzyl Penicillin,[4],20 Units/mL
same,Effective Combination Concentrations: μg/mL Compound,[4],12.5 µg/mL
O=C(O)C1=C([S+]([O-])c2ccc([N+](=O)[O-])cc2)CC2CC(=O)C12 (stereo not drawn) [32+],MIC,[3]; [7],> 100 µg/mL
same,Effective Combination Concentrations: Units/mL Benzyl Penicillin,[4],20 Units/mL
same,Effective Combination Concentrations: μg/mL Compound,[4],12.5 µg/mL
"O=C(OC(c1ccccc1)c1ccccc1)C1=CCC2CC(=O)C12 (stereo not drawn) [Compound 13, 7-Oxobicyclo[3.2.0]hept-2-en-2-carboxylic Acid, Diphenylmethyl Ester]",MIC,[3]; [7],> 100 µg/mL
same,Effective Combination Concentrations: Units/mL Benzyl Penicillin,[4],10 Units/mL
same,Effective Combination Concentrations: μg/mL Compound,[4],12.5 µg/mL
"O=C(OC(c1ccccc1)c1ccccc1)C1=C([S+]([O-])c2ccccc2)CC2CC(=O)C12 (stereo not drawn) [Compound 16, 3-Phenylsulfinyl-7-oxobicyclo[3.2.0]hept-2-en-2-carboxylic Acid, Diphenylmethyl Ester]",MIC,[3]; read-out: Microdilution MIC,50 µg/mL
"O=C(OC(c1ccccc1)c1ccccc1)C1=C(S(=O)(=O)c2ccccc2)CC2CC(=O)C12 (stereo not drawn) [Compound 20, 3-Phenylsulfonyl-7-oxobicyclo[3.2.0]hept-2-en-2-carboxylic Acid, Diphenylmethyl Ester]",MIC,[3]; read-out: Microdilution MIC,100 µg/mL
"CC(=O)NCCSC1=C(C(=O)OC(c2ccccc2)c2ccccc2)C2C(=O)CC2C1 (stereo not drawn) [Compound 24, 3-(2'-Acetamidoethylthio)-7-oxobicyclo-[3.2.0]hept-2-en-2-carboxylic Acid, Diphenylmethyl Ester]",inhibition at 75 µg/mL,[5],30 to 40%
same,MIC,[3]; [7],> 100 µg/mL
same,Effective Combination Concentrations: Units/mL Benzyl Penicillin,[4],20 Units/mL
same,Effective Combination Concentrations: μg/mL Compound,[4],12.5 µg/mL
"CC(=O)NCCSC1=C(C(=O)O)C2C(=O)CC2C1 (stereo not drawn) [Compound 25, 3-(2'-Acetamidoethylthio)-7-oxobicyclo[3.2.0]hept-2-en-2-carboxylic Acid]",inhibition at 75 µg/mL,[5],10 to 15%
CC(=O)NCC[S+]([O-])C1=C(C(=O)OC(c2ccccc2)c2ccccc2)C2C(=O)CC2C1 (stereo not drawn) [Compound 26],MIC,[3]; read-out: Microdilution MIC,100 µg/mL
"CC(=O)NCCSC1=C(C(=O)OCc2cccc3ccccc23)C2C(=O)CC2C1 (stereo not drawn) [Compound 28, 3-(2'-Acetamidoethylthio)-7-oxobicyclo[3.2.0]hept-2-en-2-carboxylic Acid, 1-Naphthylmethyl Ester]",MIC,[3]; [7],> 100 µg/mL
same,Effective Combination Concentrations: Units/mL Benzyl Penicillin,[4],20 Units/mL
same,Effective Combination Concentrations: μg/mL Compound,[4],25 µg/mL
"CC(=O)NCC[S+]([O-])C1=C(C(=O)OCc2cccc3ccccc23)C2C(=O)CC2C1 (stereo not drawn) [Compound 29, 3-(2'-Acetamidoethylsulfinyl)-7-oxobicyclo[3.2.0]hept-2-en-2-carboxylic Acid, 1-Naphthylmethyl Ester]",MIC,[3]; [7],100 µg/mL
same,Effective Combination Concentrations: Units/mL Benzyl Penicillin,[4],20 Units/mL
same,Effective Combination Concentrations: μg/mL Compound,[4],25 µg/mL
"O=C(OC(c1ccccc1)c1ccccc1)C1=C([S+]([O-])c2ccc([N+](=O)[O-])cc2)CC2CC(=O)C12 (stereo not drawn) [Compound 32, 3-(p-Nitrophenylsulfinyl)-7-oxobicyclo[3.2.0]hept-2-en-2-carboxylic Acid, Diphenylmethyl Ester]",MIC,[1],6.3 µg/mL
same,active against B. cereus var. mycoides,[1],active
same,Effective Combination Concentrations: Units/mL Benzyl Penicillin,[2],25 Units/mL
same,Effective Combination Concentrations: μg/mL Compound,[2],1.5 µg/mL
same,survival rate,[6]; compound by itself at 500 mg/kg,16.7%
same,survival,[6]; oral combination of 32 at 125 mg/kg and Penicillin G at 80 mg/kg,83.3%
same,MIC,[3]; [7],25 µg/mL
same,Effective Combination Concentrations: Units/mL Benzyl Penicillin,[4],5.0 Units/mL
same,Effective Combination Concentrations: Units/mL Benzyl Penicillin,[4]; listed as 32*,10 Units/mL
same,Effective Combination Concentrations: μg/mL Compound,[4],6.3 µg/mL
O=C(OC(c1ccccc1)c1ccccc1)C1=C([S+]([O-])CCNC(=O)C(c2ccccc2)c2ccccc2)CC2CC(=O)C12 (stereo not drawn) [Compound 64],MIC,[3]; [7],> 100 µg/mL
same,Effective Combination Concentrations: Units/mL Benzyl Penicillin,[4],20 Units/mL
same,Effective Combination Concentrations: μg/mL Compound,[4],3.2 µg/mL
"O=C(OC(c1ccccc1)c1ccccc1)C1=C(S(=O)(=O)c2ccc([N+](=O)[O-])cc2)CC2CC(=O)C12 (stereo not drawn) [Compound 73, 3-(p-Nitrophenylsulfonyl)-7-oxobicyclo[3.2.0]hept-2-en-2-carboxylic Acid, Diphenylmethyl Ester]",MIC,[3]; [7],50 µg/mL
same,Effective Combination Concentrations: Units/mL Benzyl Penicillin,[4],1.25 Units/mL
same,Effective Combination Concentrations: μg/mL Compound,[4],25 µg/mL
"O=C(OC(c1ccccc1)c1ccccc1)C1=CCC2C1C(=O)C2(Cl)C(O)c1ccccc1 (stereo not drawn) [Compound 75, 6-Chloro-6-(α'-hydroxybenzyl)-7-oxobicyclo[3.2.0]hept-2-en-2-carboxylic Acid, Diphenylmethyl Ester]",MIC,[3]; [7],> 100 µg/mL
same,Effective Combination Concentrations: Units/mL Benzyl Penicillin,[4],10 Units/mL
same,Effective Combination Concentrations: μg/mL Compound,[4],6.3 µg/mL
"COC1(OC)C2C(C(=O)OC(c3ccccc3)c3ccccc3)=C(S(=O)(=O)c3ccccc3)CC2C1C(C)O (stereo not drawn) [Compound 79, 3-Phenylsulfonyl-6-(1-hydroxyethyl)-7,7-dimethoxybicyclo[3.2.0]hept-2-en-2-carboxylic Acid, Diphenylmethyl Ester]",MIC,[3]; [7],> 100 µg/mL
same,Effective Combination Concentrations: Units/mL Benzyl Penicillin,[4],20 Units/mL
same,Effective Combination Concentrations: μg/mL Compound,[4],12.5 µg/mL
"CC1(C)S[C@@H]2[C@H](NC(=O)Cc3ccccc3)C(=O)N2[C@H]1C(=O)O [benzyl penicillin, reference compound]",Benzyl penicillin MIC,"[1]; Table 6 footnote, alone",100 units/mL
same,survival,"[6]; Penicillin G by itself, 80 mg/kg",33.3%
same,Minimum Inhibitory Concentration of Benzyl Penicillin,"[3]; Table 4 footnote, alone",100 units/mL
same,minimum inhibitory concentration (MIC) of benzyl penicillin,"[3]; test isolate, benzyl penicillin alone",> 100 units per mL
"Cc1onc(-c2ccccc2Cl)c1C(=O)N[C@@H]1C(=O)N2[C@@H]1SC(C)(C)[C@@H]2C(=O)O [cloxacillin, reference compound]",inhibition at 75 µg/mL,[5],10 to 15%
